Cc1cccc(Nc2ccccc2C(=O)O)c1C
solubility (mole fraction)
Details	in DMAc	in DMF	in acetone	in cyclohexane	in ethanol	in ethyl acetate	in isopropanol	in n-heptane	in n-hexane	in water
298 K	0.122	0.0171	0.0054	0.0009	0.0019	0.0039	0.002	0.0011	0.0013	–
303 K	0.138	0.0208	0.0055	0.0009	0.002	0.0045	0.0024	0.0013	0.0014	–
308 K	0.153	0.0275	0.0065	0.0011	0.0024	0.0055	0.0026	0.0015	0.0016	–
313 K	0.165	0.0327	0.007	0.0012	0.0032	0.0071	0.0033	0.0017	0.0018	1e-05
318 K	0.175	0.0391	0.0084	0.0014	0.0037	0.0079	0.004	0.0018	0.002	3e-05
323 K	0.19	0.0551	0.0098	0.0016	0.0042	0.0096	0.0053	0.0022	0.0024	5e-05

Reference: BigSolDB 2.1
